Measured values taken from paper PMC11864979, “First-in-class ultralong-target-residence-time p38α inhibitors as a mitosis-targeted therapy for colorectal cancer” (Nature Cancer, 2025).
Where two headings read alike, the source gives them in different places.

What was measured:
Experiment in all cases: selectivity profiling in a panel of 340 wild-type kinases (Reaction Biology Europe)
Type in all cases: binding
[1] = molecular target: T1, 340 wild-type kinases (Homo sapiens, UniProt O14920)
T1 construct: purchased Reaction Biology Europe
T1 sequence (O14920 1-756): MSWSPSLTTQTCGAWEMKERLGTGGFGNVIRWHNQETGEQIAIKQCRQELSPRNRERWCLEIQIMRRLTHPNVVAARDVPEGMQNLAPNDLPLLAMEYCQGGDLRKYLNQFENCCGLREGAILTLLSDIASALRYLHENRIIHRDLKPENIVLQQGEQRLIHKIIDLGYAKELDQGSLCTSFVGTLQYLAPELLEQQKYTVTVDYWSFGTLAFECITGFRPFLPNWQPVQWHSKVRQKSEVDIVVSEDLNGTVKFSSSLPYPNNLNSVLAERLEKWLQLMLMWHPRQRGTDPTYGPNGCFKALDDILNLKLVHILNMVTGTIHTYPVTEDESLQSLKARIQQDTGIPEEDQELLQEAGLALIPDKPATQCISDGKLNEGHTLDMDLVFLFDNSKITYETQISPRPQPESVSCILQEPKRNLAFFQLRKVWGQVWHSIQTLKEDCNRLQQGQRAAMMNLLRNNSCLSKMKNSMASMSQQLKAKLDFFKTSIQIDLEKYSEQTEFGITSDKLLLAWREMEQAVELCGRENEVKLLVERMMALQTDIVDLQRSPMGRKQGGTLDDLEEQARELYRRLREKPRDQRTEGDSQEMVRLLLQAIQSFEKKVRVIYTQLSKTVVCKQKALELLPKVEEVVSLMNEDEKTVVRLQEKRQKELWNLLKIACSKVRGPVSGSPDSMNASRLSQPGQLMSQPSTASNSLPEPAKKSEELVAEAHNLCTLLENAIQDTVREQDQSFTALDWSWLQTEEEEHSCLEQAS

[2] = molecular target: T2, 340 wild-type kinases (Homo sapiens, UniProt Q9H4B4)
T2 construct: purchased Reaction Biology Europe
T2 sequence (Q9H4B4 whole entry): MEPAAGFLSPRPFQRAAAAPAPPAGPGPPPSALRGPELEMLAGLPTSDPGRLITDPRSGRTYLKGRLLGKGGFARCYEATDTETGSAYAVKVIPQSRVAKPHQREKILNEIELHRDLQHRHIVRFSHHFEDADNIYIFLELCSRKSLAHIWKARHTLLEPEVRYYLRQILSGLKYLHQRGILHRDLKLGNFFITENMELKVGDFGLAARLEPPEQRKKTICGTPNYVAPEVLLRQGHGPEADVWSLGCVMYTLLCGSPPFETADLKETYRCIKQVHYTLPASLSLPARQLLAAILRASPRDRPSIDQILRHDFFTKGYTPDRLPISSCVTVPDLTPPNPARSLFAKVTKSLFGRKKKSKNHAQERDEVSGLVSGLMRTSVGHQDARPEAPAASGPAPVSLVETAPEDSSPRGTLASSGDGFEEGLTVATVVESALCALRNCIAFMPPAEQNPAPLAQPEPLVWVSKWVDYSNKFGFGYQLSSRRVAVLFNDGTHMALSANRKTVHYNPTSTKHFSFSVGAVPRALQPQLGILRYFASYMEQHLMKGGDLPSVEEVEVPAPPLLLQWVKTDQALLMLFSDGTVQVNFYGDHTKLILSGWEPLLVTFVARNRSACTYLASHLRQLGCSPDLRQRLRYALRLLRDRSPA

[3] = molecular target: T3, 340 wild-type kinases (Homo sapiens, UniProt Q05513)
T3 construct: purchased Reaction Biology Europe
T3 sequence (Q05513 1-592): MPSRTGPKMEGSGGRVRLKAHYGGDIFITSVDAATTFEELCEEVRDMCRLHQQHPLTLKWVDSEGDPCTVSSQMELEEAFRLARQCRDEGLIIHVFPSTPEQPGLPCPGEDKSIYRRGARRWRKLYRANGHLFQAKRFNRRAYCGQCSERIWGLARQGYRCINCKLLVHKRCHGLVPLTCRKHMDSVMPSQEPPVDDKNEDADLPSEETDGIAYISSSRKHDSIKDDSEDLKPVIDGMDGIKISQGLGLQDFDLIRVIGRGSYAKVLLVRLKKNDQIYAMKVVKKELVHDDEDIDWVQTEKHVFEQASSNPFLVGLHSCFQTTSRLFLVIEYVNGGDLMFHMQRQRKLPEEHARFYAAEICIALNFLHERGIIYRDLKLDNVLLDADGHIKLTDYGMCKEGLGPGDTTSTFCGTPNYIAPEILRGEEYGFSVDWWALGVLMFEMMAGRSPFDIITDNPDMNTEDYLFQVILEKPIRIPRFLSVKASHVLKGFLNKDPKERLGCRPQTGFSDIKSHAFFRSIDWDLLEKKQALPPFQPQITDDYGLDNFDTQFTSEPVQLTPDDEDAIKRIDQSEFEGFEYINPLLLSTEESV

[4] = molecular target: T4, 340 wild-type kinases (Homo sapiens, UniProt Q9H1R3)
T4 construct: purchased Reaction Biology Europe
T4 sequence (Q9H1R3 whole entry): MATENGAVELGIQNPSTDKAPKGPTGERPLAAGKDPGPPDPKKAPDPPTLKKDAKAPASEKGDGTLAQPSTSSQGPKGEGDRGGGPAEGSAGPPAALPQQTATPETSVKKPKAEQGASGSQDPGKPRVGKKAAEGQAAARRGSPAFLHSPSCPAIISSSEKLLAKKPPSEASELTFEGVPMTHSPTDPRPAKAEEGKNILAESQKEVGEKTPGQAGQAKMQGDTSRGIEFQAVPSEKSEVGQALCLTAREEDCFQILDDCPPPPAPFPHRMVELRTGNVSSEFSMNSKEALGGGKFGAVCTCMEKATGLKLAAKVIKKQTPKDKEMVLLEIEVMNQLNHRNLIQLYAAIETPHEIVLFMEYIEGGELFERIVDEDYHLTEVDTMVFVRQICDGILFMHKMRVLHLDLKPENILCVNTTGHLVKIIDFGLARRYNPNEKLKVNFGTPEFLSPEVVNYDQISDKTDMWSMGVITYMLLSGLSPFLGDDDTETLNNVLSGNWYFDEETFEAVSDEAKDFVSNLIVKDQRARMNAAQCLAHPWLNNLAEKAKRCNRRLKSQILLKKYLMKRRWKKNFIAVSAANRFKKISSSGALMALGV

[5] = molecular target: T5, 340 wild-type kinases (Homo sapiens, UniProt P16234)
T5 construct: purchased Reaction Biology Europe
T5 sequence (P16234 24-1089): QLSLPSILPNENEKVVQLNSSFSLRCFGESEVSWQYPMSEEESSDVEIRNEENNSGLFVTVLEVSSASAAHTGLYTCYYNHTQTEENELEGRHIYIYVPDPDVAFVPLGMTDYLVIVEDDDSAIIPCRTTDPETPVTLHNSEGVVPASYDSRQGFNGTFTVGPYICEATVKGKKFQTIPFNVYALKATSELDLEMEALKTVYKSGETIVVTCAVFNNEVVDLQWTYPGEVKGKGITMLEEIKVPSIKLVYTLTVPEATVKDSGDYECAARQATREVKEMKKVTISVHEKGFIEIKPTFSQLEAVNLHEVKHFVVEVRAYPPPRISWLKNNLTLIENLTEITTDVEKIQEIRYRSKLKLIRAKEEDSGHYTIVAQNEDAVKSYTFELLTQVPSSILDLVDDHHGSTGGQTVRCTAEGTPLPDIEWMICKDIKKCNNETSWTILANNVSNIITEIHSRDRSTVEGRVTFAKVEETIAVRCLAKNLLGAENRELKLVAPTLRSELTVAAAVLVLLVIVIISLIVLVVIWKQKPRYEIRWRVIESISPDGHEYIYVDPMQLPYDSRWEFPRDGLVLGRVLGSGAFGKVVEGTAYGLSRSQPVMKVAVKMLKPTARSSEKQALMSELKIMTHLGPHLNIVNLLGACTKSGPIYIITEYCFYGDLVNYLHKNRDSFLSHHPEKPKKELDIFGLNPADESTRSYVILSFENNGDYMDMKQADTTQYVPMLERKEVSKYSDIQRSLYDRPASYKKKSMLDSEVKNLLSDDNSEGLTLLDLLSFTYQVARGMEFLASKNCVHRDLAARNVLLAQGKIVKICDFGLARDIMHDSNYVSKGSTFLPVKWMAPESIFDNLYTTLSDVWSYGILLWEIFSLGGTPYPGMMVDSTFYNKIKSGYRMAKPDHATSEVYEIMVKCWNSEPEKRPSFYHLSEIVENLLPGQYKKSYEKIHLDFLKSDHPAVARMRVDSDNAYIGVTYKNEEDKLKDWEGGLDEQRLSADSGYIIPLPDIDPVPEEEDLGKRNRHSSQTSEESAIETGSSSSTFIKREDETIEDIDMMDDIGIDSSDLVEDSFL

[6] = molecular target: T6, 340 wild-type kinases (Homo sapiens, UniProt Q16539)
T6 construct: purchased Reaction Biology Europe
T6 sequence (Q16539 whole entry): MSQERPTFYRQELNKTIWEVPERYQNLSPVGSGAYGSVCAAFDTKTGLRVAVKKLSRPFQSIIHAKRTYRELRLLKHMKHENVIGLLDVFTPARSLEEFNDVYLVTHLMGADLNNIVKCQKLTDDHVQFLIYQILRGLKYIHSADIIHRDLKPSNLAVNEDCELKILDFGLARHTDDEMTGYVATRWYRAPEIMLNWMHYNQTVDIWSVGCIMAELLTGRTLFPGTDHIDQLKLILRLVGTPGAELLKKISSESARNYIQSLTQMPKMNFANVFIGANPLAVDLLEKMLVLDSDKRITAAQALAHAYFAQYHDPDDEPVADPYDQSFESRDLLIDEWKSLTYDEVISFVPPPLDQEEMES

[7] = molecular target: T7, 340 wild-type kinases (Homo sapiens, UniProt Q13627)
T7 construct: purchased Reaction Biology Europe

[8] = molecular target: T8, 340 wild-type kinases (Homo sapiens, UniProt Q9H422)
T8 construct: purchased Reaction Biology Europe
T8 sequence (Q9H422 whole entry): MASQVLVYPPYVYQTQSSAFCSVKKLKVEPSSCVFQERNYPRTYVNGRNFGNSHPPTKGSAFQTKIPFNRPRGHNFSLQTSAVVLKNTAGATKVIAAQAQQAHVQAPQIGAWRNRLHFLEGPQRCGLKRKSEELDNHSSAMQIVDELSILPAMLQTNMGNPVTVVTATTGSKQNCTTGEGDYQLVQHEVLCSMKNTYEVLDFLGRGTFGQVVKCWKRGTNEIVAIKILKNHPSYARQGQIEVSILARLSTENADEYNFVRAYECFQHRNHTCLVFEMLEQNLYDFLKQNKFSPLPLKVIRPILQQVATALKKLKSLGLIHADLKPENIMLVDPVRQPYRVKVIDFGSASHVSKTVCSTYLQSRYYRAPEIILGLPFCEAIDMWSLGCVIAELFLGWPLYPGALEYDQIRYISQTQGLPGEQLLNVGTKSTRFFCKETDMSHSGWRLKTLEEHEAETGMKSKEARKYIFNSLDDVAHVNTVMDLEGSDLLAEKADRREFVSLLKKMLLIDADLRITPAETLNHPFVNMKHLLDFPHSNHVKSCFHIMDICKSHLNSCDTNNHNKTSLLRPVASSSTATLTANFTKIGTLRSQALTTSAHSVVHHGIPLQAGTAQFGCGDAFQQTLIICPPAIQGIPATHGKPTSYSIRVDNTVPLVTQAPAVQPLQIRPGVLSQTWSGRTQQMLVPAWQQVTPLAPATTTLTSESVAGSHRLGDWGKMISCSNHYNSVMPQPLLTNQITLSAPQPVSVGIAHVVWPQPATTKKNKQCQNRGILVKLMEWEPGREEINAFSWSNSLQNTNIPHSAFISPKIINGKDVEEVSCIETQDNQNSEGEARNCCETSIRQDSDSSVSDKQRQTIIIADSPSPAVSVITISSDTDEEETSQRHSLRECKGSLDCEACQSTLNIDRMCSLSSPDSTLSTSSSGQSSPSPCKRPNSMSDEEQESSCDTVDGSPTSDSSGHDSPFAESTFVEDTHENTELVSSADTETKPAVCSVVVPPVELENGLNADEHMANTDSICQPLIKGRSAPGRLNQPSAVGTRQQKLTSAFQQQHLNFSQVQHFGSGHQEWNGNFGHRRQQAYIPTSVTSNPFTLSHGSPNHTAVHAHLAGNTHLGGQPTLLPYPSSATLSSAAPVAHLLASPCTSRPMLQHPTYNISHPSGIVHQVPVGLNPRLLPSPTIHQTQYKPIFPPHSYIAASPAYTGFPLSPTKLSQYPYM

[9] = molecular target: T9, 340 wild-type kinases (Homo sapiens, UniProt Q9BUB5)
T9 construct: purchased Reaction Biology Europe
T9 sequence (Q9BUB5 whole entry): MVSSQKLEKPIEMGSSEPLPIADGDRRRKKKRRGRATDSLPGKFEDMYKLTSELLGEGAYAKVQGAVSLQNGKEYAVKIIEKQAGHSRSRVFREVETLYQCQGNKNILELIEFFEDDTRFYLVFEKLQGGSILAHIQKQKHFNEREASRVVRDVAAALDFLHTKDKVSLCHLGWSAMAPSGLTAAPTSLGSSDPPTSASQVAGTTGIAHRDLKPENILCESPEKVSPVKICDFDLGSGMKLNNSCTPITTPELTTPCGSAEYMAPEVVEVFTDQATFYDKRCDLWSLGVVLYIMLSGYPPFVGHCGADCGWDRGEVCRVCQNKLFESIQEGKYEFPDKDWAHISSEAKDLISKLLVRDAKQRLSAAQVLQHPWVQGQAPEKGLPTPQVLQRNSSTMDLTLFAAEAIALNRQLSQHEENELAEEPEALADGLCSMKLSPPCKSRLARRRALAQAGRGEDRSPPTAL

CNC(=O)c1ccc2c(c1)C(=O)c1ccc(Nc3ccc(F)c(NC(=O)C4CC4)c3)cc1CC2 [Compound 2015]
remaining activity at 0.2 µM ([1]; 0.2 µM 2015, read-out: IKKbeta residual activity): 108%
remaining activity at 1 µM ([1]; 1 µM 2015, read-out: IKKbeta residual activity): 99%
remaining activity at 0.2 µM ([1]; IKKbeta, 0.2 µM, read-out: residual activity): 108%
remaining activity at 1 µM ([1]; IKKbeta, 1 µM, read-out: residual activity): 99%
remaining activity at 0.2 µM ([2]; 0.2 µM 2015, read-out: PLK3 residual activity): 101%
remaining activity at 1 µM ([2]; 1 µM 2015, read-out: PLK3 residual activity): 134%
remaining activity at 0.2 µM ([2]; PLK3, 0.2 µM, read-out: residual activity): 101%
remaining activity at 1 µM ([2]; PLK3, 1 µM, read-out: residual activity): 134%
remaining activity at 0.2 µM ([3]; 0.2 µM 2015, read-out: PKCzeta residual activity): 126%
remaining activity at 0.2 µM ([3]; 0.2 µM 2015, read-out: PKMzeta residual activity): 106%
remaining activity at 1 µM ([3]; 1 µM 2015, read-out: PKCzeta residual activity): 111%
remaining activity at 1 µM ([3]; 1 µM 2015, read-out: PKMzeta residual activity): 102%
remaining activity at 0.2 µM ([3]; PKCzeta, 0.2 µM, read-out: residual activity): 126%
remaining activity at 1 µM ([3]; PKCzeta, 1 µM, read-out: residual activity): 111%
remaining activity at 0.2 µM ([4]; 0.2 µM 2015, read-out: MYLK2 residual activity): 89.3%
remaining activity at 1 µM ([4]; 1 µM 2015, read-out: MYLK2 residual activity): 77.6%
remaining activity at 0.2 µM ([4]; MYLK2, 0.2 µM, read-out: residual activity): 89.3%
remaining activity at 1 µM ([4]; MYLK2, 1 µM, read-out: residual activity): 77.6%
remaining activity at 0.2 µM ([5]; 0.2 µM 2015, read-out: PDGFRalpha residual activity): 102%
remaining activity at 1 µM ([5]; 1 µM 2015, read-out: PDGFRalpha residual activity): 95.4%
remaining activity at 0.2 µM ([5]; PDGFRalpha, 0.2 µM, read-out: residual activity): 102%
remaining activity at 1 µM ([5]; PDGFRalpha, 1 µM, read-out: residual activity): 95.4%
remaining activity at 0.2 µM ([6]; 0.2 µM 2015, read-out: p38alpha residual activity): 5.35%
remaining activity at 1 µM ([6]; 1 µM 2015, read-out: p38alpha residual activity): 1.8%
remaining activity at 0.2 µM ([6]; p38alpha, 0.2 µM, read-out: residual activity): 5.35%
remaining activity at 1 µM ([6]; p38alpha, 1 µM, read-out: residual activity): 1.8%
remaining activity at 0.2 µM ([7]; 0.2 µM 2015, read-out: DYRK1A residual activity): 86.7%
remaining activity at 1 µM ([7]; 1 µM 2015, read-out: DYRK1A residual activity): 90.3%
remaining activity at 0.2 µM ([7]; DYRK1A, 0.2 µM, read-out: residual activity): 86.8%
remaining activity at 1 µM ([7]; DYRK1A, 1 µM, read-out: residual activity): 90.3%
remaining activity at 0.2 µM ([8]; 0.2 µM 2015, read-out: HIPK3 residual activity): 104%
remaining activity at 1 µM ([8]; 1 µM 2015, read-out: HIPK3 residual activity): 104%
remaining activity at 0.2 µM ([8]; HIPK3, 0.2 µM, read-out: residual activity): 104%
remaining activity at 1 µM ([8]; HIPK3, 1 µM, read-out: residual activity): 104%
remaining activity at 0.2 µM ([9]; 0.2 µM 2015, read-out: MKNK1 residual activity): 98.2%
remaining activity at 1 µM ([9]; 1 µM 2015, read-out: MKNK1 residual activity): 91.6%
remaining activity at 0.2 µM ([9]; MKNK1, 0.2 µM, read-out: residual activity): 98.2%
remaining activity at 1 µM ([9]; MKNK1, 1 µM, read-out: residual activity): 91.6%
